Test results published in US20120220562A1, “Anti-Viral Compounds” (ABBOTT LABAORATORIES, priority 2011, published 2012).

Test system: HCV 1b-Con1 replicon
Experiment: HCV 1b-Con1 replicon assay in the presence of 5% FBS
Format: cell-based
Conditions: Hepatitis C virus

Compound	EC50 [nM]
COC(=O)N[C@H](C(=O)N1CCC[C@H]1c1nc2cc([C@H]3CC[C@H](c4ccc5[nH]c([C@@H]6CCCN6C(=O)[C@@H](NC(=O)OC)C(C)C)nc5c4)N3c3ccc(Oc4ccccc4)cc3)ccc2[nH]1)C(C)C [Example 1.1, methyl {(2S)-1-[(2S)-2-{5-[(2R,5R)-5-{2-[(2S)-1-{(2S)-2-[(methoxycarbonyl)amino]-3-methylbutanoyl}pyrrolidin-2-yl]-1H-benzimidazol-5-yl}-1-(4-phenoxyphenyl)pyrrolidin-2-yl]-1H-benzimidazol-2-yl}pyrrolidin-1-yl]-3-methyl-1-oxobutan-2-yl}carbamate]	< 0.1
COC(=O)N[C@H](C(=O)N1CCC[C@H]1c1nc2cc([C@H]3CC[C@H](c4ccc5[nH]c([C@@H]6CCCN6C(=O)[C@@H](NC(=O)OC)C(C)C)nc5c4)N3c3ccc(N4CCCCC4=O)cc3)ccc2[nH]1)C(C)C [Example 1.2, methyl {(2S)-1-[(2S)-2-(5-{(2R,5R)-5-{2-[(2S)-1-{(2S)-2-[(methoxycarbonyl)amino]-3-methylbutanoyl}pyrrolidin-2-yl]-1H-benzimidazol-5-yl}-1-[4-(2-oxopiperidin-1-yl)phenyl]pyrrolidin-2-yl}-1H-benzimidazol-2-yl)pyrrolidin-1-yl]-3-methyl-1-oxobutan-2-yl}carbamate]	> 10
COC(=O)N[C@H](C(=O)N1CCC[C@H]1c1nc2cc([C@H]3CC[C@@H](c4ccc5[nH]c([C@@H]6CCCN6C(=O)[C@@H](NC(=O)OC)C(C)C)nc5c4)N3c3cc(F)c(C(F)(F)F)cc3F)ccc2[nH]1)C(C)C [Example 1.3, methyl {(2S)-1-[(2S)-2-{5-[(2S,5R)-1-[2,5-difluoro-4-(trifluoromethyl)phenyl]-5-{2-[(2S)-1-{(2S)-2-[(methoxycarbonyl)amino]-3-methylbutanoyl}pyrrolidin-2-yl]-1H-benzimidazol-5-yl}pyrrolidin-2-yl]-1H-benzimidazol-2-yl}pyrrolidin-1-yl]-3-methyl-1-oxobutan-2-yl}carbamate]	< 0.1
COC(=O)N[C@H](C(=O)N1CCC[C@H]1c1nc2cc([C@H]3CC[C@H](c4ccc5[nH]c([C@@H]6CCCN6C(=O)[C@@H](NC(=O)OC)C(C)C)nc5c4)N3c3ccnc(F)c3)ccc2[nH]1)C(C)C [Example 1.4, methyl {(2S)-1-[(2S)-2-{5-[(2R,5R)-1-(2-fluoropyridin-4-yl)-5-{2-[(2S)-1-{(2S)-2-[(methoxycarbonyl)amino]-3-methylbutanoyl}pyrrolidin-2-yl]-1H-benzimidazol-5-yl}pyrrolidin-2-yl]-1H-benzimidazol-2-yl}pyrrolidin-1-yl]-3-methyl-1-oxobutan-2-yl}carbamate]	0.1 to 1
COC(=O)N[C@H](C(=O)N1CCC[C@H]1c1nc2cc([C@H]3CC[C@H](c4ccc5[nH]c([C@@H]6CCCN6C(=O)[C@@H](NC(=O)OC)C(C)C)nc5c4)N3c3cc(F)c(N4CCC(F)(F)CC4)c(F)c3)ccc2[nH]1)C(C)C [Example 1.5, methyl {(2S)-1-[(2S)-2-{5-[(2R,5R)-1-[4-(4,4-difluoropiperidin-1-yl)-3,5-difluorophenyl]-5-{2-[(2S)-1-{(2S)-2-[(methoxycarbonyl)amino]-3-methylbutanoyl}pyrrolidin-2-yl]-1H-benzimidazol-5-yl}pyrrolidin-2-yl]-1H-benzimidazol-2-yl}pyrrolidin-1-yl]-3-methyl-1-oxobutan-2-yl}carbamate]	< 0.1
COC(=O)NC(C(=O)N1CCC[C@H]1c1nc2cc([C@H]3CC[C@H](c4ccc5[nH]c([C@@H]6CCCN6C(=O)C(NC(=O)OC)C(C)C)nc5c4)N3c3cc(F)c(N4CCC(F)CC4)c(F)c3)ccc2[nH]1)C(C)C (stereo partly drawn) [Example 1.6, methyl {1-[(2S)-2-{5-[(2R,5R)-1-[3,5-difluoro-4-(4-fluoropiperidin-1-yl)phenyl]-5-{2-[(2S)-1-{2-[(methoxycarbonyl)amino]-3-methylbutanoyl}pyrrolidin-2-yl]-1H-benzimidazol-5-yl}pyrrolidin-2-yl]-1H-benzimidazol-2-yl}pyrrolidin-1-yl]-3-methyl-1-oxobutan-2-yl}carbamate]	< 0.1
CCC1(COc2ccc(N3[C@@H](c4ccc5[nH]c([C@@H]6CCCN6C(=O)[C@@H](NC(=O)OC)C(C)C)nc5c4)CC[C@@H]3c3ccc4[nH]c([C@@H]5CCCN5C(=O)[C@@H](NC(=O)OC)C(C)C)nc4c3)cc2)COC1 [Example 1.7, methyl {(2S)-1-[(2S)-2-{5-[(2R,5R)-1-{4-[(3-ethyloxetan-3-yl)methoxy]phenyl}-5-{2-[(2S)-1-{(2S)-2-[(methoxycarbonyl)amino]-3-methylbutanoyl}pyrrolidin-2-yl]-1H-benzimidazol-5-yl}pyrrolidin-2-yl]-1H-benzimidazol-2-yl}pyrrolidin-1-yl]-3-methyl-1-oxobutan-2-yl}carbamate]	< 0.1
COC(=O)N[C@H](C(=O)N1CCC[C@H]1c1nc2cc([C@H]3CC[C@H](c4ccc5[nH]c([C@@H]6CCCN6C(=O)[C@@H](NC(=O)OC)C(C)C)nc5c4)N3c3cc(F)c(N4C[C@H]5CC[C@H]5C4)c(F)c3)ccc2[nH]1)C(C)C [Example 1.8, methyl {(2S)-1-[(2S)-2-{5-[(2R,5R)-1-{4-[(1R,5S)-3-azabicyclo[3.2.0]hept-3-yl]-3,5-difluorophenyl}-5-{2-[(2S)-1-{(2S)-2-[(methoxycarbonyl)amino]-3-methylbutanoyl}pyrrolidin-2-yl]-1H-benzimidazol-5-yl}pyrrolidin-2-yl]-1H-benzimidazol-2-yl}pyrrolidin-1-yl]-3-methyl-1-oxobutan-2-yl}carbamate]	< 0.1
COC(=O)N[C@H](C(=O)N1CCC[C@H]1c1nc2cc([C@H]3CC[C@H](c4ccc5[nH]c([C@@H]6CCCN6C(=O)[C@@H](NC(=O)OC)C(C)C)nc5c4)N3c3ccc(-c4ncco4)cc3)ccc2[nH]1)C(C)C [Example 2.1, methyl {(2S)-1-[(2S)-2-(5-{(2R,5R)-5-{2-[(2S)-1-{(2S)-2-[(methoxycarbonyl)amino]-3-methylbutanoyl}pyrrolidin-2-yl]-1H-benzimidazol-5-yl}-1-[4-(1,3-oxazol-2-yl)phenyl]pyrrolidin-2-yl}-1H-benzimidazol-2-yl)pyrrolidin-1-yl]-3-methyl-1-oxobutan-2-yl}carbamate]	< 0.1
COC(=O)N[C@H](C(=O)N1CCC[C@H]1c1nc2cc([C@H]3CC[C@H](c4ccc5[nH]c([C@@H]6CCCN6C(=O)[C@@H](NC(=O)OC)C(C)C)nc5c4)N3c3ccc(Cl)c(F)c3)ccc2[nH]1)C(C)C [Example 2.2, methyl {(2S)-1-[(2S)-2-{5-[(2R,5R)-1-(4-chloro-3-fluorophenyl)-5-{2-[(2S)-1-{(2S)-2-[(methoxycarbonyl)amino]-3-methylbutanoyl}pyrrolidin-2-yl]-1H-benzimidazol-5-yl}pyrrolidin-2-yl]-1H-benzimidazol-2-yl}pyrrolidin-1-yl]-3-methyl-1-oxobutan-2-yl}carbamate]	< 0.1
COC(=O)N[C@H](C(=O)N1CCC[C@H]1c1nc2cc([C@H]3CC[C@H](c4ccc5[nH]c([C@@H]6CCCN6C(=O)[C@@H](NC(=O)OC)C(C)C)nc5c4)N3c3ccc(OC4COCOC4)cc3)ccc2[nH]1)C(C)C [Example 2.3, methyl {(2S)-1-[(2S)-2-{5-[(2R,5R)-1-[4-(1,3-dioxan-5-yloxy)phenyl]-5-{2-[(2S)-1-{(2S)-2-[(methoxycarbonyl)amino]-3-methylbutanoyl}pyrrolidin-2-yl]-1H-benzimidazol-5-yl}pyrrolidin-2-yl]-1H-benzimidazol-2-yl}pyrrolidin-1-yl]-3-methyl-1-oxobutan-2-yl}carbamate]	1 to 10
COC(=O)N[C@H](C(=O)N1CCC[C@H]1c1nc2cc([C@H]3CC[C@H](c4ccc5[nH]c([C@@H]6CCCN6C(=O)[C@@H](NC(=O)OC)C(C)C)nc5c4)N3c3ccc(OCC4COCO4)cc3)ccc2[nH]1)C(C)C (stereo partly drawn) [Example 2.4, methyl {(2S)-1-[(2S)-2-{5-[(2R,5R)-1-[4-(1,3-dioxolan-4-ylmethoxy)phenyl]-5-{2-[(2S)-1-{(2S)-2-[(methoxycarbonyl)amino]-3-methylbutanoyl}pyrrolidin-2-yl]-1H-benzimidazol-5-yl}pyrrolidin-2-yl]-1H-benzimidazol-2-yl}pyrrolidin-1-yl]-3-methyl-1-oxobutan-2-yl}carbamate]	< 0.1
CCC1(COc2c(F)cc(N3[C@@H](c4ccc5nc([C@@H]6CCCN6C(=O)[C@@H](NC(=O)OC)C(C)C)[nH]c5c4)CC[C@@H]3c3ccc4nc([C@@H]5CCCN5C(=O)[C@@H](NC(=O)OC)C(C)C)[nH]c4c3)cc2F)COC1 [Example 2.5, methyl {(2S)-1-[(2S)-2-{6-[(2R,5R)-1-{4-[(3-ethyloxetan-3-yl)methoxy]-3,5-difluorophenyl}-5-{2-[(2S)-1-{(2S)-2-[(methoxycarbonyl)amino]-3-methylbutanoyl}pyrrolidin-2-yl]-1H-benzimidazol-6-yl}pyrrolidin-2-yl]-1H-benzimidazol-2-yl}pyrrolidin-1-yl]-3-methyl-1-oxobutan-2-yl}carbamate]	< 0.1
COC(=O)N[C@H](C(=O)N1CCC[C@H]1c1nc2ccc([C@H]3CC[C@H](c4ccc5nc([C@@H]6CCCN6C(=O)[C@@H](NC(=O)OC)C(C)C)[nH]c5c4)N3c3c(F)c(F)c(N4CCCCC4)c(F)c3F)cc2[nH]1)C(C)C [Example 2.6, methyl {(2S)-1-[(2S)-2-(6-{(2R,5R)-5-{2-[(2S)-1-{(2S)-2-[(methoxycarbonyl)amino]-3-methylbutanoyl}pyrrolidin-2-yl]-1H-benzimidazol-6-yl}-1-[2,3,5,6-tetrafluoro-4-(piperidin-1-yl)phenyl]pyrrolidin-2-yl}-1H-benzimidazol-2-yl)pyrrolidin-1-yl]-3-methyl-1-oxobutan-2-yl}carbamate]	< 0.1
COC(=O)N[C@H](C(=O)N1CCC[C@H]1c1nc2ccc([C@H]3CC[C@H](c4ccc5nc([C@@H]6CCCN6C(=O)[C@@H](NC(=O)OC)C(C)C)[nH]c5c4)N3c3ccc(S(C)(=O)=O)c(F)c3)cc2[nH]1)C(C)C [Example 2.7, methyl {(2S)-1-[(2S)-2-{6-[(2R,5R)-1-[3-fluoro-4-(methylsulfonyl)phenyl]-5-{2-[(2S)-1-{(2S)-2-[(methoxycarbonyl)amino]-3-methylbutanoyl}pyrrolidin-2-yl]-1H-benzimidazol-6-yl}pyrrolidin-2-yl]-1H-benzimidazol-2-yl}pyrrolidin-1-yl]-3-methyl-1-oxobutan-2-yl}carbamate]	1 to 10
